Laboratory results reported in publication PMC11117721, “A Fast-Binding, Functionally Reversible, COX-2 Radiotracer for CNS PET Imaging” (ACS Central Science, 2024).

Columns and labels:
[1] = target: T1, COX-2 (Homo sapiens, UniProt P35354); assay: PET imaging of h-Thy1 COX-2 transgenic mice; format: in vivo, mouse; set-up: FLAG; P2A linker remnant (GFP cassette co-expressed, separated by P2A); host or cells: rat striatal (caudate putamen) neurons transduced in vivo with AAV2, human synapsin promoter; details: for SUV Average (9–21 min): h-Thy1 COX-2 mice (n = 5)
T1 sequence (P35354 18-604): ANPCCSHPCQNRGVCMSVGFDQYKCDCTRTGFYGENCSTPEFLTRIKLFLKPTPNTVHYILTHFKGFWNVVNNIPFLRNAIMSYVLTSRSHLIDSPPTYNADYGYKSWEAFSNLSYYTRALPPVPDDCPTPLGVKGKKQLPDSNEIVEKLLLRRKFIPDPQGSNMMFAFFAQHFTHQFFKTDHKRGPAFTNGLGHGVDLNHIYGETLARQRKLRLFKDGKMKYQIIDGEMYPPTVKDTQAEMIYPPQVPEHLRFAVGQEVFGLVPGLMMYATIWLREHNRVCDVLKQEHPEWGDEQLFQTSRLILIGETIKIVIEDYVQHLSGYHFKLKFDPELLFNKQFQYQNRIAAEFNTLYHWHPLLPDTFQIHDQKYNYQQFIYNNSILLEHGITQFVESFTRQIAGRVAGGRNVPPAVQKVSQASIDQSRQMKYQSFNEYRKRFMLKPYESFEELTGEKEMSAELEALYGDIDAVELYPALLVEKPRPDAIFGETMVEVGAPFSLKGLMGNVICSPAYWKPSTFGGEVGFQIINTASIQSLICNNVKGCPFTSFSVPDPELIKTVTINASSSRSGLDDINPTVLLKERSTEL
Description: (§1) We performed additional validation of [^11C]BRD1158 through in vivo PET imaging of an hCOX-2 transgenic mouse line (Figure 3), which overexpressed human COX-2 primarily in neurons (Strain No. 010703, Jackson Laboratories). […] While we did perform contralateral sham (control virus) injections in the AAV rats to assess potential injection confounds, as COX-2 is part of the injury and inflammation response, it was important to validate in a model naïve to brain insult to mitigate how aspects of the AAV rat experimental design could have misled our interpretations of tracer specific binding.
(§2) In accordance with Massachusetts General Hospital Institutional Animal Care and Use Committee (IACUC) protocols, Sprague Dawley rats (300-500g, Charles River Laboratories), wildtype mice (Strain C57BL/6J), and human Thy-1-COX-2 transgenic line 303 mice (Strain 010703, Jackson Laboratories) were used in these studies. All animals were housed in a standard animal facility with access to conventional rodent food and water ad libitum and a 12 -hour day/night schedule. All animals were allowed to acclimate before any experime ntal procedures. Only male animals were used for imaging experiments .
(§3) Animals were induced under anesthesia using 1 -3% isoflurane in a carrier of 1.0 -1.5 L/min oxygen.
(§4) Maintenance of isoflurane depended on procedure and species, rats 2 -3% and mice 1-2%. Rats undergoing surgeries had higher isoflurane maintenance at 3 -4%. After induction, the animals’ body temperatures were regulated using a support heating pad or fan throughout all experiments.
(§5) Respiratory rates and body temperature were monitored through all imaging and surgical procedures, generally using a respiratory pad and rectal probe. Injections were made through the lateral tail vein.
(§6) Rats were cannulated with an IV extension using a 60 in, 0.3 mL volume IV extender (Smith Medical) and a 24 ga x 0.75 in IV catheter (McKesson). Mice were cannulated with Intramedic PE10 tubing (BD […]
(§7) Group 2 animals then […]
received one 4µL ICV injection of AAV2-GFP-hCOX2 to the Rcpu and one 4µL ICV injection of AAV2-GFP to the Lcpu, an injection paradigm that successfully led to robust, localized, unilateral COX -2 expression that we could use to compare radiotracers (Figure 2, SI Figure 8). Another rat (animal ID SD2006080) received one 4µL ICV injection of AAV2-GFP-hCOX2 to the Rcpu and no left caudate sham injection (SI
Figure 9). All surgical procedures were performed aseptically. Once rats were prepared and secured with a stereotaxic device (Stoelting Co, Wood Dale, IL), bregma was located. […]
A 33 -gauge neuro syringe (Hamilton, Reno, NV) was inserted around DV 3.5 mm for one injection. I njections were given slowly and the needle was kept in for 15 min to allow for adequate perfusion. […]

[2] = target: T2, COX-2 (Mus musculus, UniProt Q05769); assay: PET imaging of wild-type mice (controls); format: in vivo; details: WT mice (n = 4)
T2 construct: from tissue; host or cells: brain of living wild-type mice (Strain C57BL/6J)
T2 sequence (Q05769 18-604): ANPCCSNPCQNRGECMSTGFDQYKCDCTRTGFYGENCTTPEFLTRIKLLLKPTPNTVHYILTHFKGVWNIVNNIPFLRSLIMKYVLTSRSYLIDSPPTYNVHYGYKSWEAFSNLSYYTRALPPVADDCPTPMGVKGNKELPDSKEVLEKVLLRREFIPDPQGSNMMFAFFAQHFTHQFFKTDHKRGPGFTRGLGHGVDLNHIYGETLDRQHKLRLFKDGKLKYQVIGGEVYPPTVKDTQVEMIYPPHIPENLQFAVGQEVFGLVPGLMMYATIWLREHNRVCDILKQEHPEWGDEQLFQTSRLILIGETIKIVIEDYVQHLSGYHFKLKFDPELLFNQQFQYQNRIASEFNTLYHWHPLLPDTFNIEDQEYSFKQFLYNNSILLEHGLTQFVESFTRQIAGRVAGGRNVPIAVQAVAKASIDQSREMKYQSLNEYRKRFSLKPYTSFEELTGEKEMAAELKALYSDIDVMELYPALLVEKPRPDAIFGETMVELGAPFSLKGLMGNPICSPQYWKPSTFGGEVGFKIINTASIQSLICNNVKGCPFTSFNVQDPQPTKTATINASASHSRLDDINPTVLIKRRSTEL
Description: as §1, §2, §3, §4, §5, §6, §7

Structure (SMILES): [11CH3]S(=O)(=O)c1ccc(-c2cccc(NCc3ccoc3)n2)cc1 [[^11C]BRD1158]
- SUV Average (9–21 min) ([1]; cerebellum): 1.84 ± 0.56
- SUV Average (9–21 min) ([1]; cortex): 1.68 ± 0.50
- SUV Average (9–21 min) ([1]; striatum): 1.95 ± 0.55
- time to significant signal differentiation from wild-type controls ([1]; hCOX-2 transgenic mice): 10 to 20 min
- SUV Average (9–21 min) ([2]; cerebellum): 0.376 ± 0.02
- SUV Average (9–21 min) ([2]; cortex): 0.359 ± 0.04
- SUV Average (9–21 min) ([2]; striatum): 0.385 ± 0.05
